From US20100311107A1, “Ultra-High Throughput Screening of Natural Products” (priority 2004, published 2010)
Like-named read-outs stand apart in the source and are kept apart here.

Tests used:
Assay type in all cases: cell-based, Escherichia coli
[1] = tested on: E. coli screening strain DR1212; set-up: unit not given here; conditions: Table 11, MHB medium
Experimental: (§1) The level of drug-resistance of screening strain DR1212 was analyzed by standard MIC assay in MHB liquid medium and the result was summarized in Table 11. Similar to screening strains, DR1234 and CM166, DR1212 is also resistant to drugs whose resistant genes have been introduced.

[2] = tested on: E. coli screening strain CM400; set-up: unit not given here; conditions: Table 13, MHB medium
Experimental: (§2) The level of drug resistance of screening strains CM400 and CM435 was evaluated by standard MIC assay in MHB liquid medium and the results are summarized in Table 13. According to the MIC results, CM435 is hypersensitive to Bleomycin, Daunorucibin, Coumermycin A1 and Erythromycin. Screening strain CM435 and others, which are hypersensitive to certain types of antimicrobial agents, are advantageous in detecting bioactive compounds with low concentration in the screening system.

[3] = tested on: E. coli screening strain CM435; set-up: Minimal inhibitory concentrations (MIC90) CM435: unit not given here; conditions: for Minimal inhibitory concentrations (MIC90) CM435: Table 13, MHB medium
screening strain DR1212 = experiment: macrodroplet screening assay for DNA-interacting agents; conditions: DNA excluded from the bioassay medium
Experimental: (§3) After the period of incubation as described above, macrodroplets can be screened for biological activities by a unique technique termed macrodroplet screening assay. The biological activities of compounds secreted by the encapsulated microorganisms and contained within the macrodroplet beads can be detected by, for example, cell growth inhibition. In general, screening strains should first be cultured to a certain cell density (proper OD reads as described in section 5.3.3.) in liquid medium and then plated in semi-solid medium matrix (0.8%), which overlays the macrodroplet beads (see FIG. 1, item 140. Item 145 of FIG. 1 represents the top layer of semi-solid medium matrix containing a selected screening strain). After being incubated overnight, the screening strain can grow throughout the matrix, except in areas where macrodroplet beads release metabolites, which prevent the growth of the screening strain. The inhibition of cell growth may result in zones of inhibition around these beads (see item 155, FIG. 1), which usually can be detected visually.
Screening for DNA-interacting agents was carried out using the standard macrodroplet screening method previously described, with the exception that DNA was excluded from the bioassay medium. Following overnight incubation at 35° C., macrodroplet beads from zones of inhibition are recovered and processed via the normal route as discussed in section 5.2.2.4.
Alternatively, a second round screening was performed to increase specificity of the screening. Microorganisms obtained as the outcome of the screening described above were subject to a second round of screening using screening strains having a lacZ reporter gene controlled by promoters responsive to DNA damage, such as CM191 and CM242 (see section 5.3.1.d. The details of screening procedure are discussed in both section 5.2.3. Microorganisms from macrodroplets producing zones of activity were purified using methods previously described and fermented in larger volumes. Their species specificities were determined by sequencing their 16S rRNA genes and the active compounds were purified and further characterized. Several active compounds were selected by DR1212, such as chrysomycin, streptonigrin, daunomycin and chromomycin, which are all known DNA damaging agents.

[4] = tested on: E. coli screening strain DR1234; set-up: unit not given here; conditions: Table 7, MHB medium
Experimental: (§4) The screening strain, DR1234, was established after all desired drug-resistant genes listed in Table 5 had been delivered into the parent E. coli strain, MG1655, by methods described above. Its level of drug resistance was analyzed by the standard minimum inhibitory concentration (MIC) assay in MHB liquid medium (Chantot, et al., 1986, “Antibacterial activity of roxithromycin: a laboratory evaluation,” J. Antibiot, 39(5):660-8) and the result was summarized in Table 7.

[5] = tested on: E. coli screening strain CM166; set-up: unit not given here; conditions: Table 9, MHB medium
Text: (§5) The level of drug resistance of CM166 was estimated by MIC assay carried out in MHB liquid medium and the results were summarized in Table 9. CM166 is resistant to antibacterial agents whose resistant genes have been incorporated into the strain, but not to other antibacterial drugs whose resistant genes are not incorporated.

E. coli MG1655 = tested on: E. coli MG1655; set-up: unit not given here
Experimental: as §4, §5, §1
(§6) The level of drug resistance of these screening strains (both intermediates and finals) was evaluated by standard MIC assay in MHB liquid medium and the result of Strain CM242 is summarized in Table 12.
as §2

[6] = tested on: E. coli screening strain CM242; set-up: unit not given here; conditions: second Table 12, MHB medium
Experimental: as §6

[7] = tested on: PrecN′-'lacZ fusion gene in CM242; experiment: β-galactosidase activity in the presence of DNA damaging drugs
Experimental: (§7) The responses to DNA damaging agents of the screening strains described above were measured by analyzing the β-galactosidase activity in the presence of DNA damaging drugs. This method is described in detail in “A Short Course in Bacterial Genetics” 1992, ed. Miller, Cold Spring Harbor Press, pp. 72-74. The PsulA′-'lacZ fusion gene in CM191 was induced 15 fold compared to a non-induced control two hours after the addition of mitomycin C (0.5 μg/ml). In the case of CM242 which contains the PrecN′-'lacZ fusion gene, a more than 40-fold induction had been observed. Such induction was also drug-specific. In an experiment when phosphomycin (at 10 μg/ml) was used, there was no induction of the β-galactosidase activity.

[8] = tested on: PsulA′-'lacZ fusion gene in CM191; experiment: as above; conditions: CM191, two hours after addition, 0.5 μg/ml
Experimental: as §7

[9] = tested on: lacZ reporter gene of the screening strains (CM191, CM242); experiment: S-Gal staining assay on solid medium; conditions: screening strains on solid medium, drug-impregnated disks, PETG to suppress background
Text: The screening strains' responses to DNA damaging agents were further confirmed by S-Gal staining assay. When mitomycin C and streptonigrin (both were well-known DNA damaging drugs) and S-Gal, the indicator, were applied to the screening strains growing on solid medium, blue-colored rings were visible around colonies in drug-impregnated disks. […] Actinomycin D was an exception. CM242 was not sensitive to this drug, although it disrupts DNA structure. PETG (2-phenyethyl B-D-thiogalactoside, Sigma, St Louis Mo.), was used in this experiment to suppress unspecific background activity.

screening strain CM166 = experiment: macrodroplet screening assay, zones of inhibition; conditions: soil actinomycetes in macrodroplets, DNA and biotin in medium
Experimental: as §3
Next, microorganisms from the soil samples collected as described above were encapsulated to form macrodroplets populated by a single microorganism in each bead, according to the pre-determined cfu count of the particular soil extract. In this process, an aliquot of the soil bacteria suspension was diluted in 10% glycerol to generate an inoculum of the required density. This adjusted suspension was then mixed with nutrient medium, counterselective agents (see above) and 1.4% sodium alginate and the resultant mixture processed through an Inotech Encapsulator® Research device, to produce gel-beads (called macrodroplets) by the formation of droplets of liquid from a fluid stream. The droplets solidified into gel-beads as they came into contact with a calcium chloride bath, which also contained nutrient medium and counterselective agents. After a defined hardening time the macrodroplets were washed to remove excess calcium chloride and to stop the hardening process. Smidsrod and Skjak-Braek, 1990, “Alginate as immobilization matrix for cells,” Trends Biotechnol. 8(3):71-8. Cured macrodroplets containing microorganisms were then spread in dishes from which excess fluid was removed. The macrodroplets subsequently allowed growth of the target organisms and production of secondary metabolites such as anti-microbial agents. Macrodroplets were spread evenly over the plate using a sterile spreader (5,000 particles per plate) and incubated at 28-30° C. for 7 days to allow the growth of the microorganism within, and the production of secondary metabolites.
CM166 (see section 5.3.1.b for details) was used as the test strain in this example. Two to three single colonies of CM166 were inoculated into a shake flask containing 10 ml of MHB medium with 40 μg/ml Tmp and 200 μg/ml Amp. After the cells were cultured at 35° C. for 2-3 hours, an OD reading was performed. If the OD reading was above 0.1 (equivalent to 2×10^8 cfu), the screening strain was ready for dilution. Otherwise, the strain needed to be incubated for longer time until the OD read reached >0.1. Medium for the macrodroplet assay (in 1 L Duran, add 10.5 g MHB power, 4 g agar (0.8%), and 1 g DNA) was autoclaved and cooled to ˜45° C., and ampicillin (25 mg/ml), tetracycline (10 mg/ml), daptomycin (20 mg/ml) and biotin (0.1 μg/ml) were added, together with 2.5 ml screening strain. […]

## COc1cccc2c1C(=O)c1c(O)c3c(c(O)c1C2=O)C[C@@](O)(C(C)=O)C[C@@H]3O[C@H]1C[C@H](N)[C@H](O)[C@H](C)O1 [Daunorubicin]
[1]
  Minimal inhibitory concentrations (MIC90) DR1212: 12.5
[2]
  Minimal inhibitory concentrations (MIC90) CM400: >256
[3]; MHB liquid medium
  sensitivity of CM435 according to the MIC results: hypersensitive
[3]
  Minimal inhibitory concentrations (MIC90) CM435: 8
Screening strain DR1212
  active compound selected by DR1212: active
[4]
  Minimal inhibitory concentrations (MIC90) DR1234: >400
[5]
  Minimal inhibitory concentrations (MIC90) CM166: >400
E. coli MG1655; Table 7, MHB medium
  Minimal inhibitory concentrations (MIC90) MG1655: 200
E. coli MG1655; Table 9, MHB medium
  Minimal inhibitory concentrations (MIC90) MG1655: 200
E. coli MG1655; Table 11, MHB medium
  Minimal inhibitory concentrations (MIC90) MG1655: 200
E. coli MG1655; Table 13, MHB medium
  Minimal inhibitory concentrations (MIC90) MG1655: >256
E. coli MG1655; second Table 12, MHB medium
  Minimal inhibitory concentrations (MIC90) MG1655: 200
[6]
  Minimal inhibitory concentrations (MIC90) CM242: 100

## CO[C@@]12[C@H](COC(N)=O)C3=C(C(=O)C(C)=C(N)C3=O)N1C[C@@H]1N[C@@H]12 [Mitomycin C]
[1]
  Minimal inhibitory concentrations (MIC90) DR1212: <0.4
[7]; CM242, 0.5 μg/ml
  induction of PrecN′-'lacZ fusion gene: more than 40 fold
[8]
  induction of PsulA′-'lacZ fusion gene compared to a non-induced control: 15 fold
[9]
  lacZ reporter gene expression (S-Gal, blue-colored rings): induced
[4]
  Minimal inhibitory concentrations (MIC90) DR1234: 3.2
[5]
  Minimal inhibitory concentrations (MIC90) CM166: 3.2
E. coli MG1655
  Minimal inhibitory concentrations (MIC90) MG1655: 0.8
[6]
  Minimal inhibitory concentrations (MIC90) CM242: 3.2

## C[C@@H]1O[C@@H]1P(=O)(O)O [Phosphomycin]
[7]; at 10 μg/ml, strain not specified
  induction of the β-galactosidase activity: no induction
[2]
  Minimal inhibitory concentrations (MIC90) CM400: 8
[3]
  Minimal inhibitory concentrations (MIC90) CM435: 64
E. coli MG1655; Table 13, MHB medium
  Minimal inhibitory concentrations (MIC90) MG1655: 32

## COC1=C(N)C(=O)c2nc(-c3nc(C(=O)O)c(C)c(-c4ccc(OC)c(OC)c4O)c3N)ccc2C1=O [Streptonigrin]
[1]
  Minimal inhibitory concentrations (MIC90) DR1212: ≦0.2
[2]
  Minimal inhibitory concentrations (MIC90) CM400: 8
[3]
  Minimal inhibitory concentrations (MIC90) CM435: 0.5
Screening strain DR1212
  active compound selected by DR1212: active
[9]
  lacZ reporter gene expression (S-Gal, blue-colored rings): induced
[4]
  Minimal inhibitory concentrations (MIC90) DR1234: 3.2
[5]
  Minimal inhibitory concentrations (MIC90) CM166: 1.6
E. coli MG1655; Table 7, MHB medium
  Minimal inhibitory concentrations (MIC90) MG1655: 3.2
E. coli MG1655; Table 9, MHB medium
  Minimal inhibitory concentrations (MIC90) MG1655: 3.2
E. coli MG1655; Table 11, MHB medium
  Minimal inhibitory concentrations (MIC90) MG1655: 3.2
E. coli MG1655; Table 13, MHB medium
  Minimal inhibitory concentrations (MIC90) MG1655: 8
E. coli MG1655; second Table 12, MHB medium
  Minimal inhibitory concentrations (MIC90) MG1655: 3.2
[6]
  Minimal inhibitory concentrations (MIC90) CM242: 3.2

## COC1C(O)CC(OC2CC(Oc3cc4cc5c(c(O)c4c(O)c3C)C(=O)[C@@H](OC3CC(OC4CC(OC6CC(C)(O)C(OC(C)=O)C(C)O6)C(O)C(C)O4)C(O)C(C)O3)[C@H]([C@H](OC)C(=O)[C@@H](O)[C@@H](C)O)C5)OC(C)C2OC(C)=O)OC1C (stereo partly shown) [chromomycin]
Screening strain DR1212
  active compound selected by DR1212: active

## CC(=O)Nc1c2sscc-2n(C)c1=O [thiolutin]
Screening strain CM166
  bioactive compound of actinomycete strains selected with CM166: bioactive

## albomycin
Screening strain CM166
  bioactive compound of actinomycete strains selected with CM166: bioactive

## chrysomycin
Screening strain DR1212
  active compound selected by DR1212: active

## streptavidin
Screening strain CM166
  bioactive compound of actinomycete strains selected with CM166: bioactive
